According to the NIST ThermoML archive (doi:10.1016/j.jct.2018.01.015):

Assay: xn = mol fraction of the nth substance listed
Details: Gas, rotating-body viscometer for gases

N#N [nitrogen] + O=C=O
Details | viscosity [mPa·s]
253.16 K, 203.1 kPa, x1 = 0.7498 | 0.01498
253.16 K, 399 kPa, x1 = 0.7498 | 0.01501
253.16 K, 601.1 kPa, x1 = 0.7498 | 0.01505
253.16 K, 797.1 kPa, x1 = 0.7498 | 0.01509
253.16 K, 998.4 kPa, x1 = 0.7498 | 0.01514
253.17 K, 100.3 kPa, x1 = 0.7498 | 0.01495
253.17 K, 108.1 kPa, x1 = 0.4996 | 0.01423
253.17 K, 200.4 kPa, x1 = 0.4996 | 0.01425
253.17 K, 398.3 kPa, x1 = 0.4996 | 0.01427
253.17 K, 596.2 kPa, x1 = 0.4996 | 0.01431
253.17 K, 798.8 kPa, x1 = 0.4996 | 0.01435
253.18 K, 110.4 kPa, x1 = 0.2479 | 0.01347
253.18 K, 203.7 kPa, x1 = 0.2479 | 0.01348
253.18 K, 396.3 kPa, x1 = 0.2479 | 0.01348
253.18 K, 605.2 kPa, x1 = 0.2479 | 0.01352
253.21 K, 100.8 kPa, x1 = 1 | 0.01561
253.21 K, 200.9 kPa, x1 = 1 | 0.01564
253.21 K, 400.7 kPa, x1 = 1 | 0.01566
253.21 K, 600.8 kPa, x1 = 1 | 0.01571
253.21 K, 800.8 kPa, x1 = 1 | 0.01574
253.21 K, 1000.9 kPa, x1 = 1 | 0.01579
253.21 K, 1200.9 kPa, x1 = 1 | 0.01584
273.19 K, 108.8 kPa, x1 = 0.7498 | 0.01597
273.19 K, 109.2 kPa, x1 = 0.4996 | 0.01525
273.19 K, 201 kPa, x1 = 0.7498 | 0.01599
273.19 K, 400.9 kPa, x1 = 0.4996 | 0.0153
273.19 K, 401.7 kPa, x1 = 0.7498 | 0.01602
273.19 K, 600.3 kPa, x1 = 0.7498 | 0.01605
273.19 K, 603.1 kPa, x1 = 0.4996 | 0.01533
273.19 K, 800.1 kPa, x1 = 0.4996 | 0.01537
273.19 K, 800.2 kPa, x1 = 0.7498 | 0.0161
273.19 K, 1000.1 kPa, x1 = 0.7498 | 0.01613
273.19 K, 1200.6 kPa, x1 = 0.7498 | 0.01619
273.2 K, 201.1 kPa, x1 = 0.2479 | 0.01448
273.2 K, 205.6 kPa, x1 = 0.4996 | 0.01527
273.2 K, 397.9 kPa, x1 = 0.2479 | 0.0145
273.2 K, 601.6 kPa, x1 = 0.2479 | 0.01453
273.2 K, 1004.5 kPa, x1 = 0.4996 | 0.01541
273.21 K, 108.1 kPa, x1 = 0.2479 | 0.01448
273.21 K, 793.9 kPa, x1 = 0.2479 | 0.01457
273.24 K, 100.7 kPa, x1 = 1 | 0.01659
273.24 K, 200.8 kPa, x1 = 1 | 0.01661
273.24 K, 400.5 kPa, x1 = 1 | 0.01664
273.24 K, 600.4 kPa, x1 = 1 | 0.01667
273.24 K, 800.6 kPa, x1 = 1 | 0.01671
273.24 K, 1000.6 kPa, x1 = 1 | 0.01674
273.24 K, 1499.8 kPa, x1 = 1 | 0.01685
298.19 K, 108.9 kPa, x1 = 0.7498 | 0.01719
298.19 K, 196.7 kPa, x1 = 0.7498 | 0.01721
298.19 K, 402.3 kPa, x1 = 0.7498 | 0.01724
298.19 K, 604.2 kPa, x1 = 0.7498 | 0.01727
298.19 K, 801 kPa, x1 = 0.7498 | 0.0173
298.19 K, 999.3 kPa, x1 = 0.7498 | 0.01734
